Test results as given in ChEMBL document CHEMBL1147325, “13C-nmr spectral assignment and evaluation of the cytotoxic potential of rotenone” (1989).
Values after ≈ are worked out from the molar mass of the structure shown.

Key:
Format in all cases: functional
Col2 = experiment: Cytotoxicity against human Col2 cells after 72 hrs; details: Col2, 72 h, read-out: ED50 (the source's name)
[1] = Cytotoxicity against human BC1 cells after 72 hrs; details: BC1, 72 h, read-out: ED50 (the source's name)
P388 = experiment: Cytotoxicity against mouse P388 cells after 48 hrs; details: P388, 48 h, read-out: ED50 (the source's name)
SK-MEL-2 = experiment: Cytotoxicity against human SK-MEL-2 cells after 72 hrs; details: SK-MEL-2, 72 h, read-out: ED50 (the source's name)
HT-1080 = experiment: Cytotoxicity against human HT1080 cells after 48 hrs; details: HT-1080, 48 h, read-out: ED50 (the source's name)
Lu1 = experiment: Cytotoxicity against human Lu1 cells; details: read-out: ED50 (the source's name)
KB = experiment: Cytotoxicity against human KB cells after 72 hrs; details: read-out: ED50 (the source's name)

`C=C(C)[C@H]1Cc2c(ccc3c2O[C@@H]2COc4cc(OC)c(OC)cc4[C@@H]2C3=O)O1` [ROTENONE] showed an EC50 (Col2) of 0.15 µg/mL (≈ 0.38 µM), an EC50 [1] of 0.039 µg/mL (≈ 0.0989 µM) and an EC50 (P388) of 0.005 µg/mL (≈ 0.0127 µM). It also gave an EC50 (SK-MEL-2) of 0.092 µg/mL (≈ 0.233 µM), an EC50 (HT-1080) of 0.047 µg/mL (≈ 0.119 µM) and an EC50 (Lu1) of 0.044 µg/mL (≈ 0.112 µM). It also gave an EC50 (KB) of 0.067 µg/mL (≈ 0.17 µM).
